Test results published in patent US7741040B2, “Methods and compositions for detecting cancers” (Case Western Reserve University, priority 2002, dated 2010).

Test system: SLC5A8 silenced colon cancer cell lines
Assay: RT-PCR detection of SLC5A8 transcript after 5-azacytidine treatment
Type: cell-based, human
Settings: 5-azacytidine 1.5 μg/ml, 24 h on day 2 and day 5
Protocol: Amplification and Sequencing of SLC5A8. The primers used for RT-PCR assay of a SLC5A8 fragment are 5′-TCCGAGGTCTACCGTTTTG-3′, and 5′-GGGCA GGGGC ATAAA TAAC-3′. The PCR parameters were 35 cycles of 95° C. (45s), 54° C. (45s), 72° C. (60s), 72° C. (10 min), and 4° C. to cool. The full length SLC5A8 ORF was amplified using primers: 5′TCCGGGATAAGAAGTGCG-3′ and 5′-[…]-3′. GC-rich cDNA polymerase kit (Clonetech) was used and PCR parameters were 35 cycles of 95° C. (45s), 62° C. (45s), 72° C. (90s), 72° C. (10 min), and 4° C. to cool. Sequencing primers were: 5′-TTTGT GGTGGTCA TCAGCG-3′,5′-GGGCAGGGGCATAAATAAC-3′,5′-AGGCTGTG GTGATGCAAGGT-3′,5′-TTAATGCCTTAGCAGCAG-3′, and 5′-CCTCCACTT CCTGAGAGAAC-3′.
5-Azacytidine Treatment. The treatment was performed as described previously (Veigl et al., 1998, Proc Natl Acad Sci USA 95: 8698-8702). Briefly, cells were treated for 24 h on day 2 and day 5 with 5-azacytidine (Sigma) at 1.5 μg/ml. The medium was changed 24 h after addition of the 5-azacytidine (i.e., on day 3 and day 6).

## Nc1ncn([C@@H]2O[C@H](CO)[C@@H](O)[C@H]2O)c(=O)n1 [5-azacytidine]
  reactivation of SLC5A8 expression (cell lines reactivated of cell lines tested): 6 of 8
